# Laboratory results taken from US7932271B2, “Heterocyclic methyl sulfone derivative” (Daiichi Pharmaceutical Co., Ltd., priority 2003, dated 2011).
# Key:
# [1] = test system: β amyloid protein (Aβ) secreted by E35 cells (human glioma H4 cells transfected with APP751 gene); experiment: Inhibition of production or secretion of β-amyloid protein (Aβ) in E35 cells, sandwich ELISA of the supernatant; type: cell-based; conditions: 24 hours with test compound, compared to DMSO control cells, read-out: Activity (IC50, concentration at which 50% inhibition of Aβ production was observed)
# Method: The inhibitory activity against formation of β amyloid protein of the compounds obtained in Examples was tested in the method described bellow.
# E35 cells were established by transfecting APP751 gene which is a wild type human β-amyloid protein precursor into human glioma cells (H4 cells).
# E35 cells were seeded in 96-well plates and cultured in an incubator of 37° C. by using a Dulbecco's Modified Eagle's Medium containing 10% inactivated fetal bovine serum (10% FBS-DMEM). Twenty-four hours after seeding, a test compound dissolved in DMSO so as to give its concentration to be 2000 times as much as that of the final concentration was added to the medium in an amount of 1/2000 capacity of the culture medium. The cells were cultured for additional twenty-four hours, and then the supernatant was collected. The amount of β amyloid protein (Aβ) secreted in the supernatant was measured by the sandwich enzyme-linked immunosorbent assay (ELISA). Described specifically, a monoclonal antibody 25-1, which recognized Aβ25-35, was immobilized onto a 96-well ELISA plate, followed by the incubation at 4° C. for 16 to 20 hours. After washing with a phosphate buffer (pH 7.4) (PBS), a biotinylated monoclonal antibody MA32-40, which recognized Aβ1-8, was added, and the plate was kept at 4° C. for 2 hours. After the supernatant was removed and the well was washed sufficiently with PBS, alkaline phosphatase-conjugated streptavidin was added to the plate. Absorbance was measured while adding BlouPhos (manufactured by KPL) as a substrate. An amount of Aβ contained in the supernatant was calculated using a calibration curve separately created using Aβ of a known concentration. IC50 of the test compound was presented as the concentration at which 50% inhibition of Aβ production was observed compared to the amount of Aβ of the control cells to which only DMSO was added.
# When there is at least 10-times difference between the IC50 and the concentration at which cytotoxicity appears, then the compound is judged as a compound having an inhibitory activity against production or secretion of β amyloid protein.
SMILES,IC50 [1] [nM],melting point
"COc1ccc(S(=O)(=O)C(c2cc(F)ccc2F)c2cc(N)ncc2Cl)cc1 (stereo not drawn) [Example 240, [5-Chloro-4-[(2,5-difluorophenyl)(4-methoxyphenylsulfonyl)methyl]pyridin-2-yl]amine]",5 to 50,153 to 155 °C
"Nc1cc(C(c2cc(F)ccc2F)S(=O)(=O)c2ccc(Cl)cn2)c(Cl)cn1 (stereo not drawn) [Example 241, [5-Chloro-4-[(5-chloropyridin-2-ylsulfonyl)(2,5-difluorophenyl)methyl]pyridin-2-yl]amine]",5 to 50,187 to 189 °C
"CS(=O)(=O)Nc1cc(C(c2cc(F)ccc2F)S(=O)(=O)c2ccc(Cl)cn2)c(Cl)cn1 (stereo not drawn) [Example 242, N-[5-Chloro-4-[(5-chloropyridin-2-ylsulfonyl)(2,5-difluorophenyl)methyl]pyridin-2-yl]methanesulfonamide]",50 to 500,214 to 216 °C
"Nc1cc(C(c2cc(F)ccc2F)S(=O)(=O)c2ccc(Cl)s2)c(Cl)cn1 (stereo not drawn) [Example 243, [5-Chloro-4-[(5-chlorothiophen-2-ylsulfonyl)(2,5-difluorophenyl)methyl]pyridin-2-yl]amine]",5 to 50,170 to 171 °C
"Nc1cc(C(c2cc(F)ccc2F)S(=O)(=O)c2ccc(Cl)nc2)c(Cl)cn1 (stereo not drawn) [Example 245, [5-Chloro-4-[(6-chloropyridin-3-ylsulfonyl)(2,5-difluorophenyl)methyl]pyridin-2-yl]amine]",5 to 50,157 to 158 °C
"N#Cc1ccc(S(=O)(=O)C(c2cc(F)ccc2F)c2cc(N)ncc2Cl)cc1 (stereo not drawn) [Example 246, 4-[(2-Amino-5-chloropyridin-4-yl)(2,5-difluorophenyl)methylsulfonyl]benzonitrile]",5 to 50,233 to 235 °C
"Nc1cc(C(c2cc(F)ccc2F)S(=O)(=O)c2ccc(F)c(F)c2)c(Cl)cn1 (stereo not drawn) [Example 247, [5-Chloro-4-[(2,5-difluorophenyl)(3,4-difluorophenylsulfonyl)methyl]pyridin-2-yl]amine]",< 5,140 to 141 °C
"CS(=O)(=O)Nc1cc(C(c2cc(F)ccc2F)S(=O)(=O)c2ccc(F)c(F)c2)c(Cl)cn1 (stereo not drawn) [Example 249, N-[5-Chloro-4-[(2,5-difluorophenyl)(3,4-difluorophenylsulfonyl)methyl]pyridin-2-yl]methanesulfonamide]",< 5,118 to 120 °C
"Nc1cc(C(c2cc(F)ccc2F)S(=O)(=O)c2ccc(C(F)(F)F)nc2)c(Cl)cn1 (stereo not drawn) [Example 250, [5-Chloro-4-[(2,5-difluorophenyl)(6-trifluoromethylpyridin-3-ylsulfonyl)methyl]pyridin-2-yl]amine]",5 to 50,201 to 202 °C
"Nc1cc(C(c2cc(F)ccc2F)S(=O)(=O)c2ccc(Cl)c(F)c2)c(Cl)cn1 (stereo not drawn) [Example 251, [5-Chloro-4-[(4-chloro-3-fluorophenylsulfonyl)(2,5-difluorophenyl)methyl]pyridin-2-yl]amine]",< 5,159 to 160 °C
"O=C(O)CCc1cc(C(c2cc(F)ccc2F)S(=O)(=O)c2ccc(Cl)cc2)c(F)cn1 (stereo not drawn) [Example 254, 3-[4-[(4-Chlorophenylsulfonyl)(2,5-difluorophenyl)methyl]-5-fluoropyridin-2-yl]propionic acid]",50 to 500,89 to 91 °C
"O=C(O)CCc1cc(C(c2cc(F)ccc2F)S(=O)(=O)c2ccc(Cl)cc2)c(Cl)cn1 (stereo not drawn) [Example 261, 3-[5-Chloro-4-[(4-chlorophenylsulfonyl)(2,5-difluorophenyl)methyl]pyridin-2-yl]propionic acid]",5 to 50,194 to 196 °C
"O=C(O)CCc1cc(C(c2cc(F)ccc2F)S(=O)(=O)c2ccc(C(F)(F)F)cc2)c(Cl)cn1 (stereo not drawn) [Example 267, 3-[5-Chloro-4-[(2,5-difluorophenyl)(4-trifluoromethylphenylsulfonyl)methyl]pyridin-2-yl]propionic acid]",5 to 50,166 to 167 °C
"Cn1cnc(S(=O)(=O)Nc2cc(C(c3cc(F)ccc3F)S(=O)(=O)c3ccc(Cl)cc3)c(Cl)cn2)c1 (stereo not drawn) [Example 268, N-[5-Chloro-4-[(4-chlorophenylsulfonyl)(2,5-difluorophenyl)methyl]pyridin-2-yl]-1-methyl-1H-imidazole-4-sulfonamide]",< 5,294 to 296 °C

# Continued, values first:
IC50 [1] [nM],melting point,SMILES
< 5,257 °C (dec.),"O=S(=O)(Cc1ccncc1)Nc1cc(C(c2cc(F)ccc2F)S(=O)(=O)c2ccc(Cl)cc2)c(Cl)cn1 (stereo not drawn) [Example 269, N-[5-Chloro-4-[(4-chlorophenylsulfonyl)(2,5-difluorophenyl)methyl]pyridin-2-yl]-1-pyridin-4-ylmethanesulfonamide]"
5 to 50,192 to 194 °C,"O=S(=O)(c1ccc(Cl)cc1)C(c1cc(F)ccc1F)c1cc(NS(=O)(=O)N2CCCCC2)ncc1Cl (stereo not drawn) [Example 270, N-[5-Chloro-4-[(4-chlorophenylsulfonyl)(2,5-difluorophenyl)methyl]pyridin-2-yl]piperidine-1-sulfonamide]"
< 5,215 to 218 °C,CN1CCN(S(=O)(=O)Nc2cc(C(c3cc(F)ccc3F)S(=O)(=O)c3ccc(Cl)cc3)c(Cl)cn2)CC1 (stereo not drawn) [Example 271]
5 to 50,219 to 221 °C,"O=S(=O)(c1ccc(Cl)cc1)C(c1cc(F)ccc1F)c1cc(N2CCCS2(=O)=O)ncc1Cl (stereo not drawn) [Example 274, 5-Chloro-4-[(4-chlorophenylsulfonyl)(2,5-difluorophenyl)methyl]-2-(1,1-dioxo-1λ^6-isothiazolidin-2-yl)pyridine]"
5 to 50,221 to 223 °C,"O=S(=O)(c1ccc(Cl)cc1)C(c1cc(F)ccc1F)c1cc(NS(=O)(=O)C(F)(F)F)ncc1Cl (stereo not drawn) [Example 276, N-[5-Chloro-4-[(4-chlorophenylsulfonyl)(2,5-difluorophenyl)methyl]pyridin-2-yl]trifluoromethanesulfonamide]"
< 5,200 to 203 °C,"O=S(=O)(CCN1CCCCC1)Nc1cc(C(c2cc(F)ccc2F)S(=O)(=O)c2ccc(Cl)cc2)c(Cl)cn1 (stereo not drawn) [Example 278, N-[5-Chloro-4-[(4-chlorophenylsulfonyl)(2,5-difluorophenyl)methyl]pyridin-2-yl]-2-piperidin-1-ylethanesulfonamide]"
< 5,219 to 221 °C,"O=S(=O)(CCN1CCOCC1)Nc1cc(C(c2cc(F)ccc2F)S(=O)(=O)c2ccc(Cl)cc2)c(Cl)cn1 (stereo not drawn) [Example 280, N-[5-Chloro-4-[(4-chlorophenylsulfonyl)(2,5-difluorophenyl)methyl]pyridin-2-yl]-2-morpholin-4-ylethanesulfonamide]"
